# Reference: US12545639B2, “3-substituted phenylamidine compounds, preparation and use thereof” (PI INDUSTRIES LTD., priority 2019, dated 2026)
# Columns and labels:
# Format in all cases: cell-based
# [1] = system: Pyricularia oryzae; assay: microbe, parasite or virus in culture; conditions: 168 h, read-out: control compared to the untreated check (radial growth)
# [2] = system: Rhizoctonia solani; assay: Rhizoctonia solani (rice sheath blight/potato black scurf) in vitro test, radial growth on potato dextrose agar; conditions: 168 h, 300 ppm in potato dextrose agar, 25° C., 60% relative humidity, seven days, read-out: control compared to the untreated check (radial growth)
# [3] = system: Alternaria solani; assay: Alternaria solani (early blight of tomato/potato) in vitro test, radial growth on potato dextrose agar; conditions: 168 h, 300 ppm in potato dextrose agar, 25° C., 60% relative humidity, seven days, read-out: control compared to the untreated check (radial growth)
SMILES,inhibition of growth at 300 ppm [1],inhibition of growth at 300 ppm [2],inhibition of growth at 300 ppm [3]
"CCN(C)C=Nc1cc(C)cc(Nc2ncccc2C(F)(F)F)c1Cl [Compound 135, N′-(2-chloro-5-methyl-3-((3-(trifluoromethyl)pyridin-2-yl)amino)phenyl)-N-ethyl-N-methylformimidamide]",≥ 70%,≥ 70%,
"CCN(C)C=Nc1cc(Cl)cc(N(C)c2ccc(OC)cc2)c1C [Compound 167, N′-(5-chloro-3-((4-methoxyphenyl)(methyl)amino)-2-methylphenyl)-N-ethyl-N-methylformimidamide]",≥ 70%,≥ 70%,≥ 70%
"CCN(C)C=Nc1cc(C)cc(Nc2ccccc2OC(F)F)c1Cl [Compound 177, N′-(2-chloro-3-((2-(difluoromethoxy)phenyl)amino)-5-methylphenyl)-N-ethyl-N-methylformimidamide]",≥ 70%,≥ 70%,≥ 70%
"CCN(C)C=Nc1cc(Cl)cc(Nc2cccc(C)c2)c1C [Compound 154, N′-(5-chloro-2-methyl-3-(m-tolylamino)phenyl)-N-ethyl-N-methylformimidamide]",≥ 70%,≥ 70%,≥ 70%
"CCN(C)C=Nc1cc(F)cc(Cc2cccnc2)c1C [Compound 260, N-ethyl-N′-(5-fluoro-2-methyl-3-(pyridin-3-ylmethyl)phenyl)-N-methylformimidamide]",,≥ 70%,≥ 70%
"CCN(C)C=Nc1cc(F)cc(N(C)c2ccc3ncsc3c2)c1C [Compound 238, N′-(3-(benzo[d]thiazol-6-yl(methyl)amino)-5-fluoro-2-methylphenyl)-N-ethyl-N-methylformimidamide]",≥ 70%,,≥ 70%
"CCN(C)C=Nc1cc(OC)cc(Nc2ccccc2OC)c1C [Compound 268, N-ethyl-N′-(5-methoxy-3-((2-methoxyphenyl)amino)-2-methylphenyl)-N-methylformimidamide]",,,≥ 70%
"CCN(C)C=Nc1cc(C)cc(N(C)c2cc(F)cc(F)c2)c1Cl [Compound 74, N′-(2-chloro-3-((3,5-difluorophenyl)(methyl)amino)-5-methylphenyl)-N-ethyl-N-methylformimidamide]",,,≥ 70%
"CCc1cccc(Nc2cc(F)cc(N=CN(C)CC)c2C)n1 [Compound 227, N-ethyl-N′-(3-((6-ethylpyridin-2-yl)amino)-5-fluoro-2-methylphenyl)-N-methylformimidamide]",,,≥ 70%
"CCN(C)C=Nc1cc(C)cc(N(C)c2ccc3ncsc3c2)c1Cl [Compound 240, N′-(3-(benzo[d]thiazol-6-yl(methyl)amino)-2-chloro-5-methylphenyl)-N-ethyl-N-methylformimidamide]",≥ 70%,,≥ 70%
"CCN(C)C=Nc1cc(C#N)cc(Cc2cccc(C#N)c2)c1C [Compound 309, N′-(5-cyano-3-(3-cyanobenzyl)-2-methylphenyl)-N-ethyl-N-methylformimidamide]",≥ 70%,,
"CCN(C)C=Nc1cc(Cl)cc(Cc2cccnc2)c1C [Compound 248, N′-(5-chloro-2-methyl-3-(pyridin-3-ylmethyl)phenyl)-N-ethyl-N-methylformimidamide]",≥ 70%,,
"CCN(C)C=Nc1cc(C#N)cc(Cc2cccc(Br)c2)c1C [Compound 313, N′-(3-(3-bromobenzyl)-5-cyano-2-methylphenyl)-N-ethyl-N-methylformimidamide]",≥ 70%,,
"CCN(C)C=Nc1cc(Cl)cc(Cc2cccc(C#N)c2)c1C [Compound 250, N′-(5-chloro-3-(3-cyanobenzyl)-2-methylphenyl)-N-ethyl-N-methylformimidamide]",≥ 70%,,
"CCN(C)C=Nc1cc(C)cc(N(C)c2ncccc2C)c1Cl [Compound 108, N′-(2-chloro-5-methyl-3-(methyl(3-methylpyridin-2-yl)amino)phenyl)-N-ethyl-N-methylformimidamide]",≥ 70%,,≥ 70%
"CCN(C)C=Nc1cc(C)cc(N(C)c2cccc(C(F)(F)F)n2)c1Cl [Compound 290, N′-(2-chloro-5-methyl-3-(methyl(6-(trifluoromethyl)pyridin-2-yl)amino)phenyl)-N-ethyl-N-methylformimidamide]",≥ 70%,,≥ 70%
"CCN(C)C=Nc1cc(F)cc(C(=O)COc2ccc(OC)cc2Cl)c1C [Compound 304, N′-(3-(2-(2-chloro-4-methoxyphenoxy)acetyl)-5-fluoro-2-methylphenyl)-N-ethyl-N-methylformimidamide]",≥ 70%,,≥ 70%
"CCN(C)C=Nc1cc(F)cc(Cc2ccc(SC)cc2)c1C [Compound 241, N-ethyl-N′-(5-fluoro-2-methyl-3-(4-(methylthio)benzyl)phenyl)-N-methylformimidamide]",≥ 70%,≥ 70%,≥ 70%

SMILES,inhibition of growth at 300 ppm [1],inhibition of growth at 300 ppm [2],inhibition of growth at 300 ppm [3]
"CCN(C)C=Nc1cc(Cl)cc(N(C)c2ccc(OC)c(F)c2)c1C [Compound 267, N′-(5-chloro-3-((3-fluoro-4-methoxyphenyl)(methyl)amino)-2-methylphenyl)-N-ethyl-N-methylformimidamide]",≥ 70%,,
"CCN(C)C=Nc1cc(C)cc(N(C)c2cccc(OC)c2)c1Cl [Compound 49, N′-(2-chloro-3-((3-methoxyphenyl)(methyl)amino)-5-methylphenyl)-N-ethyl-N-methylformimidamide]",≥ 70%,,≥ 70%
"CCN(C)C=Nc1cc(C)cc(Nc2cc(Cl)cc(C(F)(F)F)c2)c1Cl [Compound 137, N′-(2-chloro-3-((3-chloro-5-(trifluoromethyl)phenyl)amino)-5-methylphenyl)-N-ethyl-N-methylformimidamide]",≥ 70%,,≥ 70%
"CCN(C)C=Nc1cc(Cl)cc(Cc2ccc(SC)cc2)c1C [Compound 252, N′-(5-chloro-2-methyl-3-(4-(methylthio)benzyl)phenyl)-N-ethyl-N-methylformimidamide]",≥ 70%,,
"CCN(C)C=Nc1cc(Cl)cc(Cc2cccc(OC(F)(F)F)c2)c1C [Compound 251, N′-(5-chloro-2-methyl-3-(3-(trifluoromethoxy)benzyl)phenyl)-N-ethyl-N-methylformimidamide]",≥ 70%,,
"CCN(C)C=Nc1cc(F)cc(Cc2ccccc2C#N)c1C [Compound 168, N′-(3-(2-cyanobenzyl)-5-fluoro-2-methylphenyl)-N-ethyl-N-methylformimidamide]",≥ 70%,≥ 70%,≥ 70%
"CCN(C)C=Nc1cc(OC)cc(Cc2cccc(C#N)c2)c1C [Compound 306, N′-(3-(3-cyanobenzyl)-5-methoxy-2-methylphenyl)-N-ethyl-N-methylformimidamide]",≥ 70%,≥ 70%,≥ 70%
"CCN(C)C=Nc1cc(C)cc(N(C)c2ccc(OC)cc2)c1Cl [Compound 64, N′-(2-chloro-3-((4-methoxyphenyl)(methyl)amino)-5-methylphenyl)-N-ethyl-N-methylformimidamide]",≥ 70%,≥ 70%,≥ 70%
"CCN(C)C=Nc1cc(OC)cc(Nc2ccc(OC)c(F)c2)c1C [Compound 269, N-ethyl-N′-(3-((3-fluoro-4-methoxyphenyl)amino)-5-methoxy-2-methylphenyl)-N-methylformimidamide]",,,≥ 70%
"CCN(C)C=Nc1cc(C)cc(N(C)c2ccc(F)cc2F)c1Cl [Compound 82, N′-(2-chloro-3-((2,4-difluorophenyl)(methyl)amino)-5-methylphenyl)-N-ethyl-N-methylformimidamide]",≥ 70%,≥ 70%,≥ 70%
"CCN(C)C=Nc1cc(C)cc(N(C)c2ccccn2)c1Cl [Compound 107, N′-(2-chloro-5-methyl-3-(methyl(pyridin-2-yl)amino)phenyl)-N-ethyl-N-methylformimidamide]",≥ 70%,,
"CCN(C)C=Nc1cc(C)cc(Nc2cc(F)cc(Cl)c2)c1Cl [Compound 97, N′-(2-chloro-3-((3-chloro-5-fluorophenyl)amino)-5-methylphenyl)-N-ethyl-N-methylformimidamide]",≥ 70%,,
"CCN(C)C=Nc1cc(C)cc(Nc2cc(F)cc(F)c2)c1Cl [Compound 78, N′-(2-chloro-3-((3,5-difluorophenyl)amino)-5-methylphenyl)-N-ethyl-N-methylformimidamide]",≥ 70%,,≥ 70%
"CCN(C)C=Nc1cc(C)cc(Cc2ccccc2C#N)c1Cl [Compound 47, N′-(2-chloro-3-(2-cyanobenzyl)-5-methylphenyl)-N-ethyl-N-methylformimidamide]",≥ 70%,,≥ 70%
"CCN(C)C=Nc1cc(C)cc(Nc2ccc3ncsc3c2)c1Cl [Compound 228, N′-(3-(benzo[d]thiazol-6-ylamino)-2-chloro-5-methylphenyl)-N-ethyl-N-methylformimidamide]",≥ 70%,,≥ 70%
"CCN(C)C=Nc1cc(Cl)cc(Cc2ccc(C(F)(F)F)cc2)c1C [Compound 249, N′-(5-chloro-2-methyl-3-(4-(trifluoromethyl)benzyl)phenyl)-N-ethyl-N-methylformimidamide]",≥ 70%,,
"CCN(C)C=Nc1cc(Cl)cc(N(C)c2cccc(C(F)(F)F)n2)c1C [Compound 289, N′-(5-chloro-2-methyl-3-(methyl(6-(trifluoromethyl)pyridin-2-yl)amino)phenyl)-N-ethyl-N-methylformimidamide]",≥ 70%,,≥ 70%
